In patent US20260193285A1, “GRAMINE-PLATINUM (IV) COMPLEX AS WELL AS PREPARATION METHOD THEREFOR AND ANTI-TUMOR USE THEREOF” (TIANJIN MEDICAL UNIVERSITY CANCER INSTITUTE & HOSPITAL, priority 2022, published 2026):
pIC50: −log10 of the molar value. Several values for one entry are separate records, joined by “and”; a condition that tells them apart may be missing. Equal values may be shown once.

What was measured:
4T1-Luc tumor model = assay: In vivo anti-tumor activity, breast cancer 4T1-Luc tumor model; details: for final survival rate: dead includes body weight decrease of more than 20%
Procedure: Firstly, a 4T1-Luc tumor model was established using Balb/c female mice 4-5 weeks old. After the tumor volume reached […], the mice were randomly divided into four groups, namely Solvent, Cisplatin, Cisplatin+Gramine, and Compound c groups, respectively. The drugs were formulated at a Pt concentration of 2.0 mg/kg, once every 3 days and six times in total, while the body weight and tumor volume of the mice were measured every 2 days. The mice were sacrificed and the organs (heart, liver, spleen, lung, kidney) and tumors thereof were excised. The organs and tumors were used for H&E staining, immunohistochemical staining, and ICP-MS determination of platinum content.

[1] = test system: Patient-derived xenografts (PDXs) of pancreatic cancer; assay: In vivo anti-tumor activity, pancreatic cancer PDX model; details: for final survival rate: dead includes body weight decrease of more than 20%; for tumor inhibition rate at the treatment endpoint: Pt 3.0 mg/kg once every 3 days, five times
Procedure: Patient-derived xenografts (PDXs) were used. Fresh tumor tissue from a patient was treated and transplanted subcutaneously into the groin of immunodeficient NOD-SCID IL-2 receptor gamma null (NSG) mice. […] The successfully transplanted tumor was passaged for 3 passages or more in NSG mice to obtain mouse models for experiments. […] The drugs were formulated at a Pt concentration of 3.0 mg/kg, once every 3 days and five times in total, while the body weight and tumor volume of the mice were measured every 3 days. The mice were sacrificed and the organs (heart, liver, spleen, lung, kidney) and tumors thereof were excised. The organs and tumors were used for ICP-MS determination of platinum content.

KPC tumor model = assay: In vivo anti-tumor activity, pancreatic cancer KPC model; details: for final survival rate: dead includes body weight decrease of more than 20%; for tumor inhibition rate at the treatment endpoint: Pt 3.0 mg/kg once every 3 days, five times; for PD-1 level in tumors (flow cytometry): solvent control 15.7%
Procedure: Firstly, a KPC tumor model was established using C57BL/6 female mice 4-5 weeks old. […] The drugs were formulated at a Pt concentration of 3.0 mg/kg, once every 3 days and five times in total, while the body weight and tumor volume of the mice were measured every 3 days. The mice were sacrificed and the organs (heart, liver, spleen, lung, kidney) and tumors thereof were excised. The tumors were used for flow cytometry to determine the content of immune cells.

[2] = test system: HeLa (human cervical cancer cells); assay: In vitro anti-tumor activity assay (MTT), HeLa; format: cell-based; details: 72 hours, average of multiple measurements
Excerpt: (§1) In this assay, the anti-tumor activity of the synthesized compounds was studied by MTT (3-(4,5-dimethylthiazolyl-2)-2,5-diphenyltetrazolium bromide) method. Eight kinds of cancer cells including MDA-MB-231 (human breast cancer cells), MCF-7 (human breast cancer cells), HCT-116 (human colon cancer cells), HeLa (human cervical cancer cells), FaDu (human pharyngeal squamous carcinoma cells), 5637 (human bladder cancer cells), OVCAR3 (human ovarian cancer cells), HCCC9810 (human liver cancer cells) and one normal human cell line LO2 (human liver cells) were used in this assay to perform experimental research on cytotoxicity. All cell lines were cultured in an incubator with 5% CO2 and saturated humidity at 37° C. The specific experimental steps were as follows:
(§2) The cells in logarithmic growth phase were collected, counted, adjusted to a cell concentration of 3× 10^4 cells/mL, and then seeded into a 96-well plate at 100 μL/well. The blank group (Blank, pure medium group) and the control group (Control, no drug group) were set up. The plate was cultured overnight in a cell culture incubator. After adhesion, the compounds were diluted with culture medium and added to the first column of administration wells at a desired concentration for these wells, followed by the 2-fold serial dilution and administration in subsequent wells, and pipetted gently to mix well. After incubation for 72 hours, 10 μL of MTT solution (5 mg/mL) was added to each well. After cultivation in the incubator for another 4 hours, the supernatant was removed, and DMSO was added at 100 μL/well. After shaking thoroughly, the OD value was measured using a microplate-reader at […]. Three independently repeated experiments were carried out to ensure the reliability of the experimental results.

LO2 (human liver cells) = assay: Cytotoxicity (MTT) on normal cell line LO2; format: cell-based; details: 72 hours
Excerpt: as §1, §2

[3] = test system: MDA-MB-231 (human breast cancer cells); assay: In vitro anti-tumor activity assay (MTT), MDA-MB-231; format: cell-based; details: for pIC50: 72 hours, MTT, average of multiple measurements
Excerpt: as §1, §2

[4] = test system: MCF-7 (human breast cancer cells); assay: In vitro anti-tumor activity assay (MTT), MCF-7; format: cell-based; details: average of multiple measurements
Excerpt: as §1, §2

[5] = test system: HCT-116 (human colon cancer cells); assay: In vitro anti-tumor activity assay (MTT), HCT-116; format: cell-based; details: average of multiple measurements
Excerpt: as §1, §2

[6] = test system: pancreatic cancer cells CFPAC-1; assay: CCK-8 inhibition of pancreatic cancer cells, CFPAC-1; format: cell-based; details: CCK-8, 72 hours
Procedure: (§3) In this experiment, CCK-8 was used to study the proliferation activity of pancreatic cancer cells SU86.86, MIA-PaCa2, SW1990, CFPAC-1 and BxPC-3. All cell lines were cultured in an incubator with 5% CO2 and saturated humidity at 37° C. The experimental steps were as follows:
(§4) The cells in logarithmic growth phase were collected, counted, adjusted to a cell concentration of 3×10^4 cells/mL, and then seeded into a 96-well plate at 100 μL/well. The blank group (Blank, medium group without cells) and the control group (Control, medium group with cells) were set up. After the cells in the culture plate were cultured overnight in the incubator with saturated humidity at 37° C. and adhered, the compounds were diluted with culture medium and added to the first column of administration wells at a desired concentration for these wells, followed by the 2-fold serial dilution and administration at 18 concentrations in total, and pipetted gently to mix well. After incubation for 72 hours, 10 μL of CCK8 solution (5 mg/mL) was added to each well. After cultivation in the incubator for another 4 hours, the OD value was measured using a microplate-reader at λ=450 nm.

[7] = test system: pancreatic cancer cells SU86.86; assay: CCK-8 inhibition of pancreatic cancer cells, SU86.86; format: cell-based; details: CCK-8, 72 hours
Procedure: as §3, §4

[8] = test system: pancreatic cancer cells MIA-PaCa2; assay: CCK-8 inhibition of pancreatic cancer cells, MIA-PaCa2; format: cell-based; details: CCK-8, 72 hours
Procedure: as §3, §4

[9] = test system: pancreatic cancer cells BxPC-3; assay: CCK-8 inhibition of pancreatic cancer cells, BxPC-3; format: cell-based; details: CCK-8, 72 hours
Procedure: as §3, §4

[10] = test system: pancreatic cancer organoids from patients; assay: In vitro organoid activity assay, pancreatic cancer; format: cell-based, human; details: 96 hours, CellTiter-Glo 3D, one value per case; read-out: IC50 in organoid models of 2 cases of pancreatic cancer
Procedure: (§5) The experimental steps were as follows:
(§6) Tumor samples were obtained from the patients undergoing surgery for breast cancer and pancreatic cancer, and digested with tumor dissociation kits. Tumor suspensions were collected and centrifuged to obtain tumor organoids. Complete culture medium for breast cancer or pancreatic cancer organoids was added to the organoid models which were cultured and passaged under the culture conditions of 5% CO2 and saturated humidity at 37° C. The organoids in logarithmic growth phase were collected, counted, resuspended in Matrigel at an organoid concentration of 5×10^4 cells/mL, and then seeded into a 96-well plate at 20 μL/well, followed by further addition of 80 μL of complete medium. The blank group (Blank, medium group without organoids) and the control group (Control, medium group with organoids) were set up. After the organoids were cultured overnight in an incubator with 5% CO2 at 37° C. and adhered, 200 μL of the culture medium containing the drug at a concentration of 20 μM was added to the first administration well, followed by the 2-fold serial dilution and administration, and pipetted gently to mix well. After incubation for 96 hours, representative photos were taken for each well using an inverted microscope, and 10 μL of CellTiter-Glo 3D Reagent (Promega) solution was added to each well to detect the organoid viability.

[11] = test system: pancreatic cancer cells SW1990; assay: CCK-8 inhibition of pancreatic cancer cells, SW1990; format: cell-based; details: CCK-8, 72 hours
Procedure: as §3, §4

[12] = test system: HCCC9810 (human liver cancer cells); assay: In vitro anti-tumor activity assay (MTT), HCCC9810; format: cell-based; details: 72 hours, average of multiple measurements, read-out: IC50 HCCC 9810
Excerpt: as §1
(§7) The cells in logarithmic growth phase were collected, counted, adjusted to a cell concentration of 3× 10^4 cells/mL, and then seeded into a 96-well plate at 100 μL/well. The blank group (Blank, pure medium group) and the control group (Control, no drug group) were set up. The plate was cultured overnight in a cell culture incubator. […] After shaking thoroughly, the OD value was measured using a microplate-reader at 2=570 nm. […]

[13] = test system: breast cancer organoids from patients; assay: In vitro organoid activity assay, breast cancer; format: cell-based, human; details: 96 hours, CellTiter-Glo 3D, one value per case; read-out: IC50 in organoid models of 2 cases of breast cancer
Procedure: as §5, §6

[14] = test system: OVCAR3 (human ovarian cancer cells); assay: In vitro anti-tumor activity assay (MTT), OVCAR3; format: cell-based; details: 72 hours, average of multiple measurements, read-out: IC50 OVCRA3
Excerpt: as §1, §7

[15] = test system: 5637 (human bladder cancer cells); assay: In vitro anti-tumor activity assay (MTT), 5637; format: cell-based; details: 72 hours, average of multiple measurements
Excerpt: as §1, §7

[16] = test system: FaDu (human pharyngeal squamous carcinoma cells); assay: In vitro anti-tumor activity assay (MTT), FaDu; format: cell-based; details: 72 hours, average of multiple measurements
Excerpt: as §1, §7

[17] = 4T1-Luc, Pt 2.0 mg/kg once every 3 days, six times
[18] = pancreatic cancer PDX, Pt 3.0 mg/kg
[19] = pancreatic cancer KPC, Pt 3.0 mg/kg

Compound | H&E staining: damage to tumor tissues (4T1-Luc tumor model; 4T1-Luc, Pt 2.0 mg/kg) | final survival rate (4T1-Luc tumor model; 4T1-Luc, Pt 2.0 mg/kg) [%] | final survival rate [1, 18] [%] | final survival rate (KPC tumor model; [19]) | pIC50 (LO2 (human liver cells)) | pIC50 [2] | pIC50 [6] | pIC50 [7] | pIC50 [8] | pIC50 [3] | pIC50 [9] | pIC50 ([4]; 72 hours) | pIC50 [11] | pIC50 ([5]; 72 hours) | body weight change of mice [1, 18] | tumor inhibition rate at the treatment endpoint ([1]; pancreatic cancer PDX) [%] | tumor inhibition rate at the treatment endpoint (KPC tumor model; pancreatic cancer KPC) [%] | PD-1 level in tumors (flow cytometry) (KPC tumor model; [19]) [%] | further results
CCCCCCCCCCCCNC(=O)[O][Pt]([NH2])([NH2])([Cl])([Cl])[O]C(=O)CCC(=O)n1cc(CN(C)C)c2ccccc21 [Compound c] | severe damage to tumor tissues | 100 | 100 | 100% | – | – | – | – | – | – | – | – | – | – | – | – | – | – | immunohistochemical staining of mouse spleens (CD4+, CD8+, Foxp3 Treg cells) (4T1-Luc tumor model; 4T1-Luc, Pt 2.0 mg/kg): increasing the number of CD4+ and CD8+ cells, while decreasing the number of Treg cells; tumor growth (tumor volume, tumor weight) (4T1-Luc tumor model; [17]): significantly inhibited tumor growth; platinum accumulation in tissues (ICP-MS) (4T1-Luc tumor model; mouse, in vivo): significantly decreased the accumulation in the kidney and spleen; body weight change of mice ([1]; mouse, in vivo): weight recovery and stability from Day 9 post-treatment; platinum accumulation in tissues (ICP-MS) ([1]; mouse, in vivo): significantly decreased the accumulation in the kidney and spleen; body weight change of mice (KPC tumor model; mouse, in vivo): substantially stable body weight
CN(C)Cc1c[nH]c2ccccc12 [GM, gramine] | – | – | – | – | < 4.00 | – | – | – | – | – | – | – | – | – | – | – | – | – | pIC50 ([2]; Homo sapiens, HeLa): < 4.00; pIC50 ([3]; Homo sapiens, MDA-MB-231): < 4.00; pIC50 ([4]; Homo sapiens, MCF7, 72 hours): < 4.00; pIC50 ([5]; Homo sapiens, HCT-116, 72 hours): < 4.00
O=C1[O][Pt]2([NH][C@@H]3CCCC[C@H]3[NH]2)[O]C1=O [OXP, oxaliplatin] | – | – | 60 | – | 4.57 | 4.83 | 3.70 | 5.10 | 5.70 | 4.55 | 5.86 | 4.76 | 5.55 | 5.00 | significant decline all the time | 68.82 | 64.76 | 21.0 | pIC50 [10]: 4.90 and < 4.70
cisplatin [CDDP] | severe damage to tumor tissues | 16.67 | 40 | all died finally | 5.40 | 5.31 | 3.22 | 3.90 | 3.30 | 4.80 | 3.38 | 5.23 | 3.30 | 5.06 | significant decline all the time | 32.68 | 55.67 | 24.3 | H&E staining: damage to mouse organs (4T1-Luc tumor model; 4T1-Luc, Pt 2.0 mg/kg): severe damage to the spleen, kidney, and liver; body weight change of mice (4T1-Luc tumor model; [17]): significant decline; pIC50 [12]: 5.26; pIC50 [13]: < 4.70; selectivity index IC50 (LO2)/IC50 (MDA-MB-231) ([3]; tumor cell line MDA-MB-231 versus normal cell line LO2): 0.25; pIC50 [14]: 5.71; pIC50 [15]: 5.87; pIC50 [16]: 5.80; body weight change of mice (KPC tumor model; [19]): more significant decline
